Laboratory results taken from US11590142B2, “Oxazolidinone antibiotic compounds and process of preparation” (Bugworks Research, Inc., priority 2018, dated 2023).
In brackets after ≈: the same amount, converted by molar mass.

Assays:
Format in all cases: cell-based
[1] = tested on: Staphylococcus aureus ATCC 29213; assay: Minimum Inhibitory Concentration (MIC) in LB media; settings: ATCC29213, read-out: Minimum Inhibitory Concentration S. aureus ATCC 29213
Method: (§1) Biological Activity (Antibacterial activity): The compounds of Formula (I) are of interest due to their potent antibacterial effects. […] The medium sterility is checked by incubating at 37° C. for a period of 48 h. Bacterial cultures that are stored as glycerol stocks at -80° C. are sub cultured on LB agar plates to obtain isolated colonies. A single colony of each strain is cultured in LB broth. The cultures are incubated at 37° C., 200 rpm till they reach an optical density (OD at 600 nm) of 0.8 to 1. […] Test compounds are dissolved in dimethyl sulfoxide (DMSO) to a stock concentration of 4 mg/mi. A twofold dilution series of this DMSO stock is prepared in a 96 well V bottom microtitre plate from rows A to H. A 3 μL volume of these dilutions are transferred to a 96-well flat bottom microtitre assay plate. Controls to monitor the effects of DMSO and media sterility are included. Each well is inoculated with 150 μL of the above diluted culture. The plates are incubated at 37° C. overnight in a humidified incubator. The following morning, the plates are read using a Spectrophotometer at 600 nm wavelength.

[2] = tested on: Escherichia coli ATCC 25922; assay: Minimum Inhibitory Concentration (MIC) in LB media; settings: ATCC25922, read-out: Minimum Inhibitory Concentration E. coli ATCC 25922
Method: as §1

[3] = tested on: Pseudomonas aeruginosa ATCC 27853; assay: Minimum Inhibitory Concentration (MIC) in LB media; settings: ATCC27853, read-out: Minimum Inhibitory Concentration P. aurigenosa ATCC 27853
Method: as §1

[4] = tested on: Enterococcus faecalis ATCC 29212; assay: Minimum Inhibitory Concentration (MIC) in LB media; settings: ATCC29212, read-out: Minimum Inhibitory Concentration E. faecalis ATCC 29212
Method: as §1

[5] = tested on: Acinetobacter baumannii ATCC 19606; assay: Minimum Inhibitory Concentration (MIC) in LB media; settings: ATCC19606
Method: as §1

[6] = tested on: Klebsiella pneumoniae ATCC 13883; assay: Minimum Inhibitory Concentration (MIC) in LB media; settings: ATCC13883, read-out: Minimum Inhibitory Concentration K. pneumoniae ATCC 13883
Method: as §1

[7] = target: human ether a go-go related gene (hERG) K+ channel (Homo sapiens (Human), UniProt Q12809); assay: hERG inhibition assay, QPatch HTX automated electrophysiology; settings: CHO cell line stably expressing hERG, whole-cell patch clamp, maximum test concentration 300 μM
Method: The compounds were tested for inhibition of the human ether a go-go related gene (hERG) K+ channel using QPatch HTX automated electrophysiology. […] Compounds were solubilised to 100 mM in DMSO before dilution in HBPS to 300 μM. […] Electrophysiological recordings were made from a Chinese Hamster Ovary cell line stably expressing the full-length hERG potassium channel. Single cell ionic currents were measured in whole-cell patch clamp configuration at room temperature (21-23° C.) using the QPatch HTX platform (Sophion). Intracellular solution contained (mM): 120 KF, 20 KCl, 10 EGTA, 10 HEPES and was buffered to pH 7.3. […] Cells were clamped at a holding potential of −80 mV. Cells were stepped to +20 mV for 2 s then −40 mV for 3s before returning to the holding potential. This sweep was repeated 10 times at 10 s intervals. hERG currents were measured from the tail step and referenced to the holding current. Compounds were then incubated for 2 minutes prior to a second measurement of ion channel current using an identical pulse train.

[8] = tested on: A. baumannii clinical strains; assay: Antibacterial susceptibility studies (MIC50 and MIC90), clinical strains, CLSI guidelines
[9] = tested on: E. coli clinical strains; assay: as above
[10] = tested on: K. pneumoniae clinical strains; assay: as above
[11] = tested on: K. pneumoniae ATCC13883; assay: Antibacterial susceptibility study, reference strain, CLSI guidelines
[12] = tested on: P. aurigenosa clinical strains; assay: Antibacterial susceptibility studies (MIC50 and MIC90), clinical strains, CLSI guidelines
[13] = tested on: E. cloacae clinical strains; assay: as above
[14] = tested on: P. aurigenosa ATCC27853; assay: Antibacterial susceptibility study, reference strain, CLSI guidelines
[15] = tested on: E. coli ATCC25922; assay: as above
[16] = tested on: A. baumannii ATCC19606; assay: as above

Sequence of human ether a go-go related gene (hERG) K+ channel (Q12809 whole entry): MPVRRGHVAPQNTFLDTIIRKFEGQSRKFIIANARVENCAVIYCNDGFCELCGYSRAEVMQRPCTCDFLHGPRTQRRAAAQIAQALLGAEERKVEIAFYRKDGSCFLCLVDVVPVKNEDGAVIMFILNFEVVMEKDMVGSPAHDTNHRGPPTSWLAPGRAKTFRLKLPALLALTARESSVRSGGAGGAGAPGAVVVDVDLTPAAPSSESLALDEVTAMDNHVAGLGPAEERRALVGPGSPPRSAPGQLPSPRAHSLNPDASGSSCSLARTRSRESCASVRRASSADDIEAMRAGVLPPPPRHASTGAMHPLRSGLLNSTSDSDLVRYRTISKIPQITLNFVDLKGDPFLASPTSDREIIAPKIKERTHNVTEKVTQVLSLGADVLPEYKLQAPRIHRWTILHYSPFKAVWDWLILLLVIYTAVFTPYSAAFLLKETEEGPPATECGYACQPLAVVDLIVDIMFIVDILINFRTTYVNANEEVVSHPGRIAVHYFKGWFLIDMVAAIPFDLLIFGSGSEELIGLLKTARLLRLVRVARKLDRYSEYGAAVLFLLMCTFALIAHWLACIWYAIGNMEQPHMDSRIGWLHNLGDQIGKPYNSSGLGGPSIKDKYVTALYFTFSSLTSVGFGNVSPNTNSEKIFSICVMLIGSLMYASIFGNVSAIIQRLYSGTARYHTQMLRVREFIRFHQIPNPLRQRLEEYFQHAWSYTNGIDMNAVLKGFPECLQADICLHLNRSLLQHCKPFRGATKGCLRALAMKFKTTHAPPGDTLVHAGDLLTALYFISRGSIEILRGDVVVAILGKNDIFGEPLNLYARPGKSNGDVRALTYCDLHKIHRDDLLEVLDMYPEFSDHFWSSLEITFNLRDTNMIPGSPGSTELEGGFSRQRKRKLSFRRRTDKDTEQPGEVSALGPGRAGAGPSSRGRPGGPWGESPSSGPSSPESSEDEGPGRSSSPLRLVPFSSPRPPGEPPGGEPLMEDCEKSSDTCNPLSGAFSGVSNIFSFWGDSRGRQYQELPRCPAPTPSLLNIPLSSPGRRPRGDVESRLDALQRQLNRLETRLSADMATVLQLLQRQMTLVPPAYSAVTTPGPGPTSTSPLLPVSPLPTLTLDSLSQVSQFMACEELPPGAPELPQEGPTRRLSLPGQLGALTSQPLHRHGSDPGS

| SMILES | MIC [1] | MIC [2] | MIC [3] | MIC [4] | MIC [5] | MIC [6] | IC50 [7] | other results |
| --- | --- | --- | --- | --- | --- | --- | --- | --- |
| O=C(O)c1cn(C2CC2)c2cc(N3CCNCC3)c(F)cc2c1=O [Ciprofloxacin, reference compound] | 0.4 µg/mL (≈ 1.21 µM) | 0.012 µg/mL (≈ 0.0362 µM) | 0.1 µg/mL (≈ 0.302 µM) | 0.4 µg/mL (≈ 1.21 µM) | 0.4 µg/mL (≈ 1.21 µM) | 0.05 µg/mL (≈ 0.151 µM) | – | – |
| Cn1c(=O)cnc2cc(F)c(OCCNC[C@H]3CN(c4cnc5c(n4)NC(=O)CO5)C(=O)O3)nc21 [Compound 10, (S)-6-(5-(((2-((7-fluoro-4-methyl-3-oxo-3,4-dihydropyrido[2,3-b]pyrazin-6-yl)oxy)ethyl)amino)methyl)-2-oxooxazolidin-3-yl)-2H-pyrazino[2,3-b][1,4]oxazin-3(4H)-one] | 0.06 µg/mL (≈ 0.123 µM) | 0.06 µg/mL (≈ 0.123 µM) | 1 µg/mL (≈ 2.06 µM) | 0.25 µg/mL (≈ 0.514 µM) | 0.5 µg/mL (≈ 1.03 µM) | 0.25 µg/mL (≈ 0.514 µM) | > 300 µM | – |
| CCn1c(=O)cnc2ccc(OCCNC[C@H]3CN(c4cnc5c(n4)NC(=O)CO5)C(=O)O3)nc21 [Compound 11, (S)-6-(5-(((2-((4-ethyl-3-oxo-3,4-dihydropyrido[2,3-b]pyrazin-6-yl)oxy)ethyl)amino)methyl)-2-oxooxazolidin-3-yl)-2H-pyrazino[2,3-b][1,4]oxazin-3(4H)-one] | 0.03 µg/mL (≈ 0.0622 µM) | 0.125 µg/mL (≈ 0.259 µM) | 2 µg/mL (≈ 4.15 µM) | 1 µg/mL (≈ 2.07 µM) | 0.5 µg/mL (≈ 1.04 µM) | 0.5 µg/mL (≈ 1.04 µM) | – | – |
| Cn1c(=O)cnc2cc(Cl)c(OCCNC[C@H]3CN(c4cnc5c(n4)NC(=O)CO5)C(=O)O3)nc21 [Compound 12, (S)-6-(5-(((2-((7-Chloro-4-methyl-3-oxo-3,4-dihydropyrido[2,3-b]pyrazin-6-yl)oxy)ethyl)amino)methyl)-2-oxooxazolidin-3-yl)-2H-pyrazino[2,3-b][1,4]oxazin-3(4H)-one] | 0.125 µg/mL (≈ 0.249 µM) | 0.125 µg/mL (≈ 0.249 µM) | 4 µg/mL (≈ 7.95 µM) | 0.25 µg/mL (≈ 0.497 µM) | 0.5 µg/mL (≈ 0.994 µM) | 0.25 µg/mL (≈ 0.497 µM) | 98 µM | – |
| Cn1c(=O)cnc2ccc(OCCNC[C@H]3CN(c4cnc5c(n4)NC(=O)CS5)C(=O)O3)nc21 [Compound 13, (S)-5-(((2-((4-Methyl-3-oxo-3,4-dihydropyrido[2,3-b]pyrazin-6-yl)oxy)ethyl)amino)methyl)-3-(3-oxo-3,4-dihydro-2H-pyrazino[2,3-b][1,4]thiazin-6-yl)oxazolidin-2-one] | ≤ 0.03 µg/mL | 0.03 µg/mL (≈ 0.0619 µM) | 0.5 µg/mL (≈ 1.03 µM) | 0.1 µg/mL (≈ 0.206 µM) | 0.03 µg/mL (≈ 0.0619 µM) | 0.03 µg/mL (≈ 0.0619 µM) | – | – |
| C[C@@H](O)[C@H]1C(=O)N2C(C(=O)O)=C(S[C@@H]3CN[C@H](C(=O)N(C)C)C3)[C@H](C)[C@H]12 [Meropenem, reference compound] | – | – | – | – | – | – | – | MIC50 [8]: 8 µg/mL (≈ 20.9 µM); MIC90 [8]: 32 µg/mL (≈ 83.4 µM); Minimum (MIC) ([8]; in µg/mL): 0.03125; MIC50 [9]: 0.06 µg/mL (≈ 0.156 µM); MIC90 [9]: 4 µg/mL (≈ 10.4 µM); Minimum (MIC) [9]: 0.03 µg/mL; MIC50 [10]: 1 µg/mL (≈ 2.61 µM); MIC90 [10]: 16 µg/mL (≈ 41.7 µM); Minimum (MIC) [10]: 0.03 µg/mL; ATCC13883 (MIC) [11]: 0.06 µg/mL; MIC50 [12]: 2 µg/mL (≈ 5.22 µM); MIC90 [12]: 8 µg/mL (≈ 20.9 µM); Minimum (MIC) [12]: 0.03 µg/mL; MIC50 [13]: 0.25 µg/mL (≈ 0.652 µM); MIC90 [13]: 16 µg/mL (≈ 41.7 µM); Minimum (MIC) [13]: 0.06 µg/mL; ATCC27853 (MIC) [14]: 0.5 µg/mL; ATCC25922 (MIC) [15]: 0.06 µg/mL; ATCC19606 (MIC) [16]: 0.5 µg/mL |

Continued, in another order:

| MIC [1] | MIC [2] | MIC [3] | MIC [4] | MIC [5] | MIC [6] | SMILES | IC50 [7] | other results |
| --- | --- | --- | --- | --- | --- | --- | --- | --- |
| 0.13 µg/mL (≈ 0.27 µM) | 0.06 µg/mL (≈ 0.125 µM) | 1 µg/mL (≈ 2.08 µM) | 0.5 µg/mL (≈ 1.04 µM) | 0.06 µg/mL (≈ 0.125 µM) | 0.25 µg/mL (≈ 0.519 µM) | Cn1c(=O)cnc2ccc(OCCNCCC3CN(c4ccc5c(n4)NC(=O)CO5)C(=O)O3)nc21 (centres unmarked) [Compound 1, 6-(5-(2-((2-((4-methyl-3-oxo-3,4-dihydropyrido[2,3-b]pyrazin-6-yl)oxy)ethyl)amino)ethyl)-2-oxooxazolidin-3-yl)-2H-pyrido[3,2-b][1,4]oxazin-3(4H)-one] | – | – |
| 0.06 µg/mL (≈ 0.125 µM) | 0.13 µg/mL (≈ 0.27 µM) | 0.5 µg/mL (≈ 1.04 µM) | 1 µg/mL (≈ 2.08 µM) | 0.06 µg/mL (≈ 0.125 µM) | 0.25 µg/mL (≈ 0.519 µM) | Cn1c(=O)ccc2ncc(OCCNCCC3CN(c4ccc5c(n4)NC(=O)CO5)C(=O)O3)nc21 (centres unmarked) [Compound 2, 6-(5-(2-((2-((5-methyl-6-oxo-5,6-dihydropyrido[2,3-b]pyrazin-3-yl)oxy)ethyl)amino)ethyl)-2-oxooxazolidin-3-yl)-2H-pyrido[3,2-b][1,4]oxazin-3(4H)-one] | – | – |
| 0.06 µg/mL (≈ 0.128 µM) | 0.06 µg/mL (≈ 0.128 µM) | 2 µg/mL (≈ 4.28 µM) | 0.25 µg/mL (≈ 0.535 µM) | 0.06 µg/mL (≈ 0.128 µM) | 0.25 µg/mL (≈ 0.535 µM) | Cn1c(=O)cnc2ccc(OCCNC[C@H]3CN(c4ccc5c(n4)NC(=O)CO5)C(=O)O3)nc21 [Compound 3, (S)-6-(5-(((2-((4-methyl-3-oxo-3,4-dihydropyrido[2,3-b]pyrazin-6-yl)oxy)ethyl)amino)methyl)-2-oxooxazolidin-3-yl)-2H1-pyrido[3,2-b][1,4]oxazin-3(4H)-one] | 40 µM | – |
| 0.06 µg/mL (≈ 0.128 µM) | 0.06 µg/mL (≈ 0.128 µM) | 2 µg/mL (≈ 4.28 µM) | 0.25 µg/mL (≈ 0.535 µM) | 0.06 µg/mL (≈ 0.128 µM) | 0.25 µg/mL (≈ 0.535 µM) | Cn1c(=O)cnc2ccc(OCCNC[C@@H]3CN(c4ccc5c(n4)NC(=O)CO5)C(=O)O3)nc21 [Compound 4, (R)-6-(5-(((2-((4-methyl-3-oxo-3,4-dihydropyrido[2,3-b]pyrazin-6-yl)oxy)ethyl)amino)methyl)-2-oxooxazolidin-3-yl)-2H-pyrido[3,2-b][1,4]oxazin-3(4H)-one] | 38 µM | – |
| 0.25 µg/mL (≈ 0.535 µM) | 0.25 µg/mL (≈ 0.535 µM) | 4 µg/mL (≈ 8.56 µM) | 0.5 µg/mL (≈ 1.07 µM) | 0.25 µg/mL (≈ 0.535 µM) | 0.25 µg/mL (≈ 0.535 µM) | Cn1c(=O)ccc2ncc(OCCNC[C@H]3CN(c4ccc5c(n4)NC(=O)CO5)C(=O)O3)nc21 [Compound 5, (S)-6-(5-(((2-((5-methyl-6-oxo-5,6-dihydropyrido[2,3-b]pyrazin-3-yl)oxy)ethyl)amino)methyl)-2-oxooxazolidin-3-yl)-2H1-pyrido[3,2-b][1,4]oxazin-3(4H)-one] | 82 µM | – |
| 0.13 µg/mL (≈ 0.278 µM) | 0.13 µg/mL (≈ 0.278 µM) | 2 µg/mL (≈ 4.28 µM) | 0.25 µg/mL (≈ 0.535 µM) | 0.13 µg/mL (≈ 0.278 µM) | 0.25 µg/mL (≈ 0.535 µM) | Cn1c(=O)ccc2ncc(OCCNC[C@@H]3CN(c4ccc5c(n4)NC(=O)CO5)C(=O)O3)nc21 [Compound 6, (R)-6-(5-(((2-((5-methyl-6-oxo-5,6-dihydropyrido[2,3-b]pyrazin-3-yl)oxy)ethyl)amino)methyl)-2-oxooxazolidin-3-yl)-2H-pyrido[3,2-b][1,4]oxazin-3(4H)-one] | 60 µM | – |
| 0.125 µg/mL (≈ 0.267 µM) | 0.06 µg/mL (≈ 0.128 µM) | 1 µg/mL (≈ 2.13 µM) | 0.5 µg/mL (≈ 1.07 µM) | 0.5 µg/mL (≈ 1.07 µM) | 0.25 µg/mL (≈ 0.534 µM) | Cn1c(=O)cnc2ccc(OCCNC[C@@H]3CN(c4cnc5c(n4)NC(=O)CO5)C(=O)O3)nc21 [Compound 8, (R)-6-(5-(((2-((4-methyl-3-oxo-3,4-dihydropyrido[2,3-b]pyrazin-6-yl)oxy)ethyl)amino)methyl)-2-oxooxazolidin-3-yl)-2H1-pyrazino[2,3-b][1,4]oxazin-3(4H)-one] | > 300 µM | – |
